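Where inhibition never reached the appropriate level, the endpoint shown equals the highest concentration tested. Otherwise, values were interpolated linearly from a five-concentration, 48-hour dose response in 96-well plates. Abbreviation: GI50, concentration required for 50% inhibition of growth.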 The source made the active and inactive calls. Cut-off read from the data, not from the text of the source: active = GI50 up to about 1.1 µM and inactive = higher.

Among the test systems are KM12; OVCAR-8; Malme-3M; HOP-62; RPMI-8226; EKVX; NCI-H226; IGROV-1; M19-MEL; K562; NCI-H460; DMS-114; SNB-75; 786-0.
Holding throughout (assay): growth of human tumour cells (NCI), 48 h

In the case of `C#CCNC(=O)CCC(N)C(=O)O` (centres undefined), the GI50 in the test on KM12, with OVCAR-8, in the test with Malme-3M, with HOP-62, in the test with RPMI-8226 and in the test with EKVX was > 100 µM (inactive) each time. Further, the GI50 in the test on NCI-H226, in the test with IGROV-1, with M19-MEL, with K562, with NCI-H460 and in the test with DMS-114 was > 100 µM (inactive) in each case. Further, the GI50 in the test with SNB-75 was > 100 µM (inactive).

In the case of `COc1c2c(c3ccccc3c1O)C1C=CC2C1` (centres undefined), the GI50 in the test on KM12 is 17.6 µM (inactive); in the test on OVCAR-8, 13.7 µM (inactive); in the test with Malme-3M it was 6.3 µM (inactive); in the test on HOP-62, 16.1 µM (inactive); in the test on RPMI-8226, > 100 µM (inactive); in the test with EKVX, 18.8 µM (inactive). In addition, the GI50 is > 10 µM (inactive) in the test with NCI-H226; 20.8 µM (inactive) in the test on IGROV-1; 2.32 µM (inactive) with M19-MEL; 3.85 µM (inactive) in the test on K562; 18.5 µM (inactive) with NCI-H460; 4.95 µM (inactive) in the test with DMS-114.

`COC(=O)C1=C(C)N2CCSC2(C)C(C(=O)OC)C1c1cccc(Cl)c1` (centres undefined): the GI50 with KM12 is 18.8 µM (inactive); in the test with OVCAR-8, 22.6 µM (inactive); in the test on HOP-62 it was 18.9 µM (inactive); in the test on RPMI-8226, 10.3 µM (inactive); in the test on EKVX, 12.6 µM (inactive); with NCI-H226, 19.2 µM (inactive). For the same compound, the GI50 with IGROV-1 is 20.8 µM (inactive); in the test on M19-MEL it was 16 µM (inactive); with K562 it was 17.5 µM (inactive); in the test with NCI-H460 it was 18.8 µM (inactive); in the test with DMS-114 it was 19.8 µM (inactive); in the test with SNB-75, 10.2 µM (inactive).

Regarding `O=C(O)C(Br)Cc1ccc2c(c1)OCO2` (centres undefined), the GI50 is > 100 µM (inactive) with KM12; 40.7 µM (inactive) in the test on Malme-3M; > 100 µM (inactive) with HOP-62; > 100 µM (inactive) in the test on RPMI-8226; > 100 µM (inactive) in the test on EKVX; > 100 µM (inactive) in the test on IGROV-1. Further, the GI50 was 69.2 µM (inactive) in the test on M19-MEL; > 100 µM (inactive) with K562; > 100 µM (inactive) in the test with NCI-H460; > 100 µM (inactive) with DMS-114; 20.9 µM (inactive) with SNB-75.

For the compound `CC(=O)Nc1ccc(C(=O)N2N=C(C)/C(=C/c3ccc(O)cc3)C2=O)cc1`, the GI50 in the test with 786-0, in the test with KM12, in the test on OVCAR-8, in the test with Malme-3M, in the test on HOP-62 and in the test with RPMI-8226 was > 100 µM (inactive) throughout. Moreover, the GI50 with EKVX, with NCI-H226, with M19-MEL, in the test with K562, in the test on NCI-H460 and in the test on DMS-114 was > 100 µM (inactive) each time. Further, the GI50 with SNB-75 is > 100 µM (inactive).

On to `BrC(/C=N/Nc1nnc(-c2ccccc2)c(-c2ccccc2)n1)C(Br)c1ccccc1` (centres undefined), for which the GI50 is 32 µM (inactive) in the test with 786-0; 32.9 µM (inactive) in the test on KM12; 38.5 µM (inactive) in the test with OVCAR-8; 28.5 µM (inactive) with Malme-3M; 20.6 µM (inactive) in the test on HOP-62; 14.4 µM (inactive) in the test on RPMI-8226. For the same compound, the GI50 in the test with EKVX is 29.9 µM (inactive); with NCI-H226, 20.4 µM (inactive); with IGROV-1, 41.7 µM (inactive); in the test with M19-MEL it was 36.1 µM (inactive); with K562, 22.6 µM (inactive); in the test with NCI-H460, 35.2 µM (inactive). The GI50 is 23.7 µM (inactive) with DMS-114 and 22.2 µM (inactive) in the test on SNB-75.

Consider `C[C@H](N)C(=O)N[C@@H]1[C@H]2C(=C(O)C[C@@H](O)[C@@H]2O)C(=O)O[C@@H]1C`, for which the GI50 in the test with KM12, with OVCAR-8, in the test with Malme-3M, in the test with HOP-62, in the test on RPMI-8226 and with EKVX was > 100 µM (inactive) each time. The GI50 in the test on NCI-H226, with IGROV-1, in the test on M19-MEL, with K562, with NCI-H460 and in the test with DMS-114 was > 100 µM (inactive) each time. Moreover, the GI50 in the test on SNB-75 was > 100 µM (inactive).

For the compound `Cc1cc(O)nc(NN2C(Cl)C(=O)C2c2ccco2)n1` (centres undefined), the GI50 with KM12 is 44.6 µM (inactive); in the test with OVCAR-8, 46.5 µM (inactive); in the test with HOP-62 it was 32.6 µM (inactive); with RPMI-8226 it was 16.3 µM (inactive); in the test on EKVX, 87.5 µM (inactive); in the test on IGROV-1, 27 µM (inactive). In addition, the GI50 in the test on M19-MEL is 39.5 µM (inactive); in the test on K562, 29.7 µM (inactive); in the test with NCI-H460, 24.6 µM (inactive); in the test with DMS-114, 34.4 µM (inactive); in the test on SNB-75, 13.7 µM (inactive).

As for `O=C(O)c1c[nH]c2c(=O)[nH]cnc12`, the GI50 in the test with 786-0, in the test with KM12, in the test on OVCAR-8, in the test on Malme-3M, in the test on HOP-62 and in the test with RPMI-8226 was > 100 µM (inactive) each time. In addition, the GI50 in the test with EKVX, in the test on IGROV-1, with M19-MEL, with K562, in the test with DMS-114 and in the test on SNB-75 was > 100 µM (inactive) throughout.

Regarding `CC1[C@@]2(O[C@@H]3C=C4C5CCC6Cc7nc8c(nc7C[C@@]6(C)C5C[C@H](O)[C@@]4(C)[C@]13O)CC1CCc3c(cc4c5c3C(O)C[C@H]5[C@@H](C)C3(O4)OC(C)(C)CC3O)[C@]1(C)C8)O[C@@](C)(CO)C[C@@H]2O` (some centres undefined), the GI50 in the test with KM12 was 1.29 µM (inactive); in the test with OVCAR-8, 3.24 µM (inactive); with Malme-3M it was 0.22 µM (active); in the test with HOP-62 it was 0.102 µM (active); with RPMI-8226 it was 0.0604 µM (active); in the test on EKVX it was 0.146 µM (active). In addition, the GI50 was 0.185 µM (active) in the test with NCI-H226; 0.345 µM (active) in the test with IGROV-1; 2.28 µM (inactive) with M19-MEL; 0.259 µM (active) in the test on K562; 0.126 µM (active) with NCI-H460; 0.119 µM (active) with DMS-114. In the test with SNB-75, the GI50 is 0.0182 µM (active).

For the origin of these results see ChEMBL document CHEMBL1201862, “PubChem BioAssay data set” (2004).
